Legend:
Format in all cases: in vivo
Conditions in all cases: 5 mg/kg oral gavage
[1] = target: FAAH (Mus musculus (Mouse), UniProt O08914); assay: Mouse brain proteomes from inhibitor treated mice (oral gavage, sacrifice 4 h after administration, ABPP analysis), FAAH
In short: (§1)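 Wild-type C57Bl/6J mice; p.o. gavage, vehicle e.g. PEG400/EtOH/PBS 7/2/1; 5 mg/kg. Brain harvested 4 h post-dose, proteome profiled by ABPP. Read-out: % inhibition.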

[2] = target: ABHD6 (Mus musculus (Mouse), UniProt Q8R2Y0); assay: Mouse brain proteomes from inhibitor treated mice (oral gavage, sacrifice 4 h after administration, ABPP analysis), ABHD6
In short: as §1

[3] = target: MAGL (Mus musculus (Mouse), UniProt O35678); assay: Mouse brain proteomes from inhibitor treated mice (oral gavage, sacrifice 4 h after administration, ABPP analysis)
In short: as §1

MAGL, sequence (O35678 whole entry): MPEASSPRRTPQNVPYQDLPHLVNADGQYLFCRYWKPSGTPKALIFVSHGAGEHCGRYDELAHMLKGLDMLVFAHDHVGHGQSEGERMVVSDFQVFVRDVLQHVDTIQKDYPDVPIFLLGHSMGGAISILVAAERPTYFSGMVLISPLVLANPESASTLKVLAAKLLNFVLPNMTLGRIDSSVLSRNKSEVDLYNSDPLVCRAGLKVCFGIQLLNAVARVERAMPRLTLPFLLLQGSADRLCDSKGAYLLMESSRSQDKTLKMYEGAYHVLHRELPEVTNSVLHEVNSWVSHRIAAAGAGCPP
ABHD6, sequence (Q8R2Y0 whole entry): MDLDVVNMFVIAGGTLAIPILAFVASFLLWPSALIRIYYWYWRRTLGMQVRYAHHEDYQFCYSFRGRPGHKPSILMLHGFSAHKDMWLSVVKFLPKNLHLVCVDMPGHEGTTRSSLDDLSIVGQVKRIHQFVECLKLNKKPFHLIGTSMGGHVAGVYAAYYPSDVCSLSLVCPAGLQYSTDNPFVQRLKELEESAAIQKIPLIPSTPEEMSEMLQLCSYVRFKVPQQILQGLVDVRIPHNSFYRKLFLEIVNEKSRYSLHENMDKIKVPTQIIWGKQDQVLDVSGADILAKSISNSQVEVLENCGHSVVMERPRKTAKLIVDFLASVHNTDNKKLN
FAAH, sequence (O08914 whole entry): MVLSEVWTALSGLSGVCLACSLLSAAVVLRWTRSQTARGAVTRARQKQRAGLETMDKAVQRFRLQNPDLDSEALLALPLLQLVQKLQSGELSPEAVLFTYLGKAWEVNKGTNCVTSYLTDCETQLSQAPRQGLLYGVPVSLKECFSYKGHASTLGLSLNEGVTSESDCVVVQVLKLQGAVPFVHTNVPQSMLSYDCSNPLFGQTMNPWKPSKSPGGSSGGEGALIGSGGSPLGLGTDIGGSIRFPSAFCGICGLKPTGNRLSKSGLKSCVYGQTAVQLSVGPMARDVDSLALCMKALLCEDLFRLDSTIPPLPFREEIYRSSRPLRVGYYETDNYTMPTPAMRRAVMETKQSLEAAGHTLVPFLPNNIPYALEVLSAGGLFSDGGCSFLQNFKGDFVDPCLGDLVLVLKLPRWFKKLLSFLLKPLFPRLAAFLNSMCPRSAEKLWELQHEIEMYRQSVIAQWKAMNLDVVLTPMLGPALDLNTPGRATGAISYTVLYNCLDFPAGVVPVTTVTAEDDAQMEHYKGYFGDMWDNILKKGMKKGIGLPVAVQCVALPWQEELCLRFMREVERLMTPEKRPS

Row | SMILES | FAAH % Inh 5 mg/kg (mouse) [1] | ABHD6 % Inh 5 mg/kg (mouse) [2] | MAGL % Inh 5 mg/kg (mouse) [3]
1 | O=C(O)C1CCN(c2cc(Cl)ccc2CN2CCCC23CCN(C(=O)OC(C(F)(F)F)C(F)(F)F)CC3)CC1 [Example 120, 1-(5-Chloro-2-((8-(((1,1,1,3,3,3-hexafluoropropan-2-yl)oxy)carbonyl)-1,8-diazaspiro[4.5]decan-1-yl)methyl)phenyl)piperidine-4-carboxylic acid] | # (# is < 25%) | # (# is < 25%) | ### (### is ≥ 75%)
2 | O=C(O)C1CCN(c2cc(C(F)(F)F)ccc2CN2CCCC23CCN(C(=O)OC(C(F)(F)F)C(F)(F)F)CC3)CC1 [Example 121, 1-(2-((8-(((1,1,1,3,3,3-Hexafluoropropan-2-yl)oxy)carbonyl)-1,8-diazaspiro[4.5]decan-1-yl)methyl)-5-(trifluoromethyl)phenyl)piperidine-4-carboxylic acid] | # (# is < 25%) | # (# is < 25%) | ### (### is ≥ 75%)
3 | Cc1cc(CN2CCCC23CCN(C(=O)OC(C(F)(F)F)C(F)(F)F)CC3)ccc1Cl [Example 124, 1,1,1,3,3,3-Hexafluoropropan-2-yl 1-(4-chloro-3-methylbenzyl)-1,8-diazaspiro[4.5]decane-8-carboxylate] | # (# is < 25%) | # (# is < 25%) | ### (### is ≥ 75%)
4 | Cc1ccc(CN2CCCC23CCN(C(=O)OC(C(F)(F)F)C(F)(F)F)CC3)cc1Cl [Example 125, 1,1,1,3,3,3-Hexafluoropropan-2-yl 1-(3-chloro-4-methylbenzyl)-1,8-diazaspiro[4.5]decane-8-carboxylate] | # (# is < 25%) | # (# is < 25%) | ### (### is ≥ 75%)
5 | O=C(OC(C(F)(F)F)C(F)(F)F)N1CCC2(CCCN2Cc2ccc(N3CCCC3)c(Cl)c2)CC1 [Example 128, 1,1,1,3,3,3-Hexafluoropropan-2-yl 1-(3-chloro-4-(pyrrolidin-1-yl)benzyl)-1,8-diazaspiro[4.5]decane-8-carboxylate] | # (# is < 25%) | # (# is < 25%) | ### (### is ≥ 75%)
6 | O=C(OC(C(F)(F)F)C(F)(F)F)N1CCC2(CCCN2Cc2ccc(N3CCOCC3)c(C(F)(F)F)c2)CC1 [Example 129, 1,1,1,3,3,3-Hexafluoropropan-2-yl 1-(4-morpholino-3-(trifluoromethyl)benzyl)-1,8-diazaspiro[4.5]decane-8-carboxylate] | # (# is < 25%) | # (# is < 25%) | ### (### is ≥ 75%)
7 | O=C(OC(C(F)(F)F)C(F)(F)F)N1CCC2(CCCN2Cc2ccc(N3CCCC3)c(C(F)(F)F)c2)CC1 [Example 130, 1,1,1,3,3,3-Hexafluoropropan-2-yl 1-(4-(pyrrolidin-1-yl)-3-(trifluoromethyl)benzyl)-1,8-diazaspiro[4.5]decane-8-carboxylate] | # (# is < 25%) | # (# is < 25%) | ### (### is ≥ 75%)
8 | O=C(OC(C(F)(F)F)C(F)(F)F)N1CCC2(CCCN2Cc2ccc(Cl)c(N3CCCC3)c2)CC1 [Example 132, 1,1,1,3,3,3-Hexafluoropropan-2-yl 1-(4-chloro-3-(pyrrolidin-1-yl)benzyl)-1,8-diazaspiro[4.5]decane-8-carboxylate] | # (# is < 25%) | # (# is < 25%) | ### (### is ≥ 75%)
9 | O=C(OC(C(F)(F)F)C(F)(F)F)N1CCC2(CCCN2Cc2ccc(C(F)(F)F)c(N3CCOCC3)c2)CC1 [Example 133, 1,1,1,3,3,3-Hexafluoropropan-2-yl 1-(3-morpholino-4-(trifluoromethyl)benzyl)-1,8-diazaspiro[4.5]decane-8-carboxylate] | # (# is < 25%) | # (# is < 25%) | ### (### is ≥ 75%)
10 | O=C(OC(C(F)(F)F)C(F)(F)F)N1CCC2(CCCN2Cc2ccc(C(F)(F)F)c(N3CCCC3)c2)CC1 [Example 134, 1,1,1,3,3,3-Hexafluoropropan-2-yl 1-(3-(pyrrolidin-1-yl)-4-(trifluoromethyl)benzyl)-1,8-diazaspiro[4.5]decane-8-carboxylate] | # (# is < 25%) | # (# is < 25%) | ### (### is ≥ 75%)
11 | CCc1cc(CN2CCCC23CCN(C(=O)OC(C(F)(F)F)C(F)(F)F)CC3)ccc1F [Example 150, 1,1,1,3,3,3-Hexafluoropropan-2-yl 1-(3-ethyl-4-fluorobenzyl)-1,8-diazaspiro[4.5]decane-8-carboxylate] | # (# is < 25%) | # (# is < 25%) | ### (### is ≥ 75%)
12 | CCc1cc(CN2CCC3(CCN(C(=O)OC(C(F)(F)F)C(F)(F)F)CC3)C2)ccc1F [Example 152, 1,1,1,3,3,3-Hexafluoropropan-2-yl 2-(3-ethyl-4-fluorobenzyl)-2,8-diazaspiro[4.5]decane-8-carboxylate] | # (# is < 25%) | ### (### is ≥ 75%) | ### (### is ≥ 75%)
13 | CN1CCC(Oc2cc(CN3CCCC34CCN(C(=O)OC(C(F)(F)F)C(F)(F)F)CC4)cc(C(F)(F)F)c2)CC1 [Example 166, 1,1,1,3,3,3-Hexafluoropropan-2-yl 1-(3-(1-methylpiperidin-4-yloxy)-5-(trifluoromethyl)benzyl)-1,8-diazaspiro[4.5]decane-8-carboxylate] | # (# is < 25%) | # (# is < 25%) | # (# is < 25%)
14 | O=C(OC(C(F)(F)F)C(F)(F)F)N1CCC2(CCCN2Cc2cc(Oc3nc4ccccc4s3)cc(C(F)(F)F)c2)CC1 [Example 172, 1,1,1,3,3,3-Hexafluoropropan-2-yl 1-(3-(benzo[d]thiazol-2-yloxy)-5-(trifluoromethyl)benzyl)-1,8-diazaspiro[4.5]decane-8-carboxylate] | # (# is < 25%) | # (# is < 25%) | # (# is < 25%)
15 | Cc1cc(CN2CCCC23CCN(C(=O)OC(C(F)(F)F)C(F)(F)F)CC3)ccc1C(F)(F)F [Example 177, 1,1,1,3,3,3-Hexafluoropropan-2-yl 1-(3-methyl-4-(trifluoromethyl)benzyl)-1,8-diazaspiro[4.5]decane-8-carboxylate] | # (# is < 25%) | # (# is < 25%) | ### (### is ≥ 75%)
16 | O=C(OC(C(F)(F)F)C(F)(F)F)N1CCC2(CCCN2Cc2ccc(C(F)(F)F)c(Cl)c2)CC1 [Example 183, 1,1,1,3,3,3-Hexafluoropropan-2-yl 1-(3-chloro-4-(trifluoromethyl)benzyl)-1,8-diazaspiro[4.5]decane-8-carboxylate] | # (# is < 25%) | # (# is < 25%) | ### (### is ≥ 75%)
17 | O=C(OC(C(F)(F)F)C(F)(F)F)N1CCC2(CCCN2Cc2ccc(Cl)c(C(F)(F)F)c2)CC1 [Example 184, 1,1,1,3,3,3-Hexafluoropropan-2-yl 1-(4-chloro-3-(trifluoromethyl)benzyl)-1,8-diazaspiro[4.5]decane-8-carboxylate] | # (# is < 25%) | # (# is < 25%) | ### (### is ≥ 75%)
18 | CC1(C(=O)O)CN(c2cc(CN3CCCC34CCN(C(=O)OC(C(F)(F)F)C(F)(F)F)CC4)cc(C(F)(F)F)c2)CCO1 (stereo not drawn) [Example 195, 4-(3-((8-(((1,1,1,3,3,3-hexafluoropropan-2-yl)oxy)carbonyl)-1,8-diazaspiro[4.5]decan-1-yl)methyl)-5-(trifluoromethyl)phenyl)-2-methylmorpholine-2-carboxylic acid] | # (# is < 25%) | # (# is < 25%) | # (# is < 25%)
19 | O=C(O)[C@@H]1CCCCN1c1cc(CN2CCCC23CCN(C(=O)OC(C(F)(F)F)C(F)(F)F)CC3)cc(C(F)(F)F)c1 [Example 196, (S)-1-(3-((8-(((1,1,1,3,3,3-Hexafluoropropan-2-yl)oxy)carbonyl)-1,8-diazaspiro[4.5]decan-1-yl)methyl)-5-(trifluoromethyl)phenyl)piperidine-2-carboxylic acid] | # (# is < 25%) | # (# is < 25%) | ### (### is ≥ 75%)
20 | O=C(O)C1CN(c2cc(C(F)(F)F)ccc2CN2CCCC23CCN(C(=O)OC(C(F)(F)F)C(F)(F)F)CC3)CCO1 (stereo not drawn) [Example 197, 4-(2-((8-(((1,1,1,3,3,3-Hexafluoropropan-2-yl)oxy)carbonyl)-1,8-diazaspiro[4.5]decan-1-yl)methyl)-5-(trifluoromethyl)phenyl)morpholine-2-carboxylic acid] | # (# is < 25%) | # (# is < 25%) | # (# is < 25%)
